Assay results: patent US20260109721A1, “IONIZABLE CATIONIC LIPIDS INCORPORATING SILICON: SYNTHESIS AND LNP FORMULATION” (priority 2023, published 2026)
Like-named read-outs stand apart in the source and are kept apart here.

Assays:
HeLa cells = assay: Transfection efficiency with Luciferase (SecNLuc) mRNA, Nano-Glo assay (Method A); assay type: cell-based; conditions: Luc mRNA, 24 h, luminescence; for Transfection 10 ng mRNA: 10 ng mRNA/well; for Transfection 50 ng mRNA: 50 ng mRNA/well; for Transfection 100 ng mRNA: 100 ng mRNA/well
Procedure, shortened: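 LNPs formulated by Method A carried SecNLuc mRNA at 100, 50 or 10 ng/well onto HeLa cells at 80% confluence, in triplicate. After 24 h, secreted NanoLuc in the medium was measured by Nano-Glo luminescence about 3 min after reagent addition.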

HepG2 cell line = assay: In vitro toxicity study on HepG2 cell line (resazurin, viability and IC50); assay type: cell-based, human; conditions: for Viability (%) at different lipid concentrations, mean: HepG2 cells, 48 h post-treatment, relative to ethanol vehicle controls; for IC50: Homo sapiens, read-out: IC50 value, μM (on HepG2 cell)
Procedure, shortened: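 HepG2 cells (1000/well) were treated after overnight incubation with lipids at 6.25–800 μM for 48 h. Viability was read by resazurin fluorescence (530/580 nm) after 5 h at 37 °C, relative to ethanol vehicle controls. IC50 values came from concentration-response curves.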

[1] = lipid toxicity, HepG2, 48 h post-treatment, resazurin, 6.25-800 μM

| SMILES | Transfection 10 ng mRNA (HeLa cells) | Transfection 50 ng mRNA (HeLa cells) | Transfection 100 ng mRNA (HeLa cells) | Viability (%) at different lipid concentrations, mean (HepG2 cell line; 6.25 μM lipid, resazurin) | Viability (%) at different lipid concentrations, mean (HepG2 cell line; 12.5 μM lipid, resazurin) | Viability (%) at different lipid concentrations, mean (HepG2 cell line; 25 μM lipid, resazurin) | Viability (%) at different lipid concentrations, mean (HepG2 cell line; 50 μM lipid, resazurin) | Viability (%) at different lipid concentrations, mean (HepG2 cell line; 100 μM lipid, resazurin) | Viability (%) at different lipid concentrations, mean (HepG2 cell line; 200 μM lipid, resazurin) | Viability (%) at different lipid concentrations, mean (HepG2 cell line; 400 μM lipid, resazurin) | Viability (%) at different lipid concentrations, mean (HepG2 cell line; 800 μM lipid, resazurin) | IC50 (HepG2 cell line; [1]) | IC50 (HepG2 cell line; HepG2, 48 h) |
| --- | --- | --- | --- | --- | --- | --- | --- | --- | --- | --- | --- | --- | --- |
| CCCCC/C=C\C/C=C\CCCCCCCCOC(CCCCCCC/C=C\C/C=C\CCCCC)O[Si](C)(C)OCCCCCCN(C)CCO (stereo not drawn) [Example 56, (23Z,26Z)-13-((8Z,11Z)-heptadeca-8,11-dien-1-yl)-3,11,11-trimethyl-10,12,14-trioxa-3-aza-11-siladotriaconta-23,26-dien-1-ol] | 3.00E+00 | 5.63E+01 | 6.90E+01 | 96.7% | 94.6% | 96.5% | 94.8% | 99.7% | 100.1% | 89.5% | 36.9% | 714 µM | – |
| CCCCC/C=C\C/C=C\CCCCCCCCOC(CCCCCCC/C=C\C/C=C\CCCCC)O[Si](C)(C)OCCCCCCN1CCCCC1 (stereo not drawn) [Example 57, 1-((20Z,23Z)-10-((8Z,11Z)-heptadeca-8,11-dien-1-yl)-8,8-dimethyl-7,9,11-trioxa-8-silanonacosa-20,23-dien-1-yl)piperidine] | 9.82E+04 | 1.48E+06 | 5.16E+06 | 97.2% | 93.7% | 93.2% | 94.3% | 90.5% | 86.9% | 47.6% | 4.6% | – | 401 µM |
| CCCCC/C=C\C/C=C\CCCCCCCCOC(CCCCCCC/C=C\C/C=C\CCCCC)O[Si](C)(C)OCCCCCCN1CCN(CCO)CC1 (stereo not drawn) [Example 58, 2-(4-((20Z,23Z)-10-((8Z,11Z)-heptadeca-8,11-dien-1-yl)-8,8-dimethyl-7,9,11-trioxa-8-silanonacosa-20,23-dien-1-yl)piperazin-1-yl)ethan-1-ol] | 3.85E+02 | 3.92E+03 | 7.51E+03 | 104.2% | 97.0% | 102.1% | 101.2% | 104.1% | 101.6% | 40.3% | 3.8% | 375 µM | – |
| CCCCC/C=C\C/C=C\CCCCCCCCOC(CCCCCCC/C=C\C/C=C\CCCCC)O[Si](C)(C)OCCCCCCN(C)CC(O)CO (stereo not drawn) [Example 59, (24Z,27Z)-14-((8Z,11Z)-heptadeca-8,11-dien-1-yl)-4,12,12-trimethyl-11,13,15-trioxa-4-aza-12-silatritriaconta-24,27-diene-1,2-diol] | 9.07E+03 | 2.41E+05 | 5.66E+05 | 97.3% | 100.1% | 112.6% | 112.9% | 76.9% | 29.0% | 18.1% | 8.3% | 149 µM | – |
| CCCCC/C=C\C/C=C\CCCCCCCCOC(CCCCCCC/C=C\C/C=C\CCCCC)O[Si](C)(C)OCCCCCCN(C)CCCCO (stereo not drawn) [Example 60, (25Z,28Z)-15-((8Z,11Z)-heptadeca-8,11-dien-1-yl)-5,13,13-trimethyl-12,14,16-trioxa-5-aza-13-silatetratriaconta-25,28-dien-1-ol] | 1.76E+05 | 1.12E+06 | 1.81E+06 | 100.0% | 99.3% | 98.4% | 107.2% | 117.1% | 101.1% | 73.6% | 35.2% | 310 µM | – |
| CCCCC/C=C\C/C=C\CCCCCCCCOC(CCCCCCC/C=C\C/C=C\CCCCC)O[Si](C)(C)OCCCCCCN(CCCCO)CCCCO (stereo not drawn) [Example 62, (25Z,28Z)-15-((8Z,11Z)-heptadeca-8,11-dien-1-yl)-5-(4-hydroxybutyl)-13,13-dimethyl-12,14,16-trioxa-5-aza-13-silatetratriaconta-25,28-dien-1-ol] | 1.95E+05 | 8.70E+05 | 1.68E+06 | 100.4% | 110.2% | 122.5% | 116.9% | 68.2% | 13.2% | −0.6% | −0.7% | 113 µM | – |
| CCCCC/C=C\C/C=C\CCCCCCCCOC(CCCCCCC/C=C\C/C=C\CCCCC)O[Si](C)(C)OCCCCCCN1CCCCC1CO (stereo not drawn) [Example 64, (1-((20Z,23Z)-10-((8Z,11Z)-heptadeca-8,11-dien-1-yl)-8,8-dimethyl-7,9,11-trioxa-8-silanonacosa-20,23-dien-1-yl)piperidin-2-yl)methanol] | 3.40E+05 | 1.89E+06 | 3.78E+06 | 99.5% | 98.7% | 100.3% | 97.8% | 97.8% | 91.7% | 80.3% | 47.4% | 775 µM | – |
